Test results: BindingDB's records for doi:10.1016/S0960-894X(02)01050-8 (The University of Texas At Houston, 2003)
Square brackets hold non-standard residues; d marks the D form. Peptide text beside a SMILES is read from it. ξ: configuration not given here. Phe(4-tetrazol-5-yl) = N[C@@H](Cc1ccc(-c2nnn[nH]2)cc1)C(=O)O; Phe(4-COOH) = N[C@@H](Cc1ccc(C(=O)O)cc1)C(=O)O; pY = N[C@@H](Cc1ccc(OP(=O)(O)O)cc1)C(=O)O; Thr(3ξ) = CC(O)[C@H](N)C(=O)O

target: Signal transducer and activator of transcription 3 (Mus musculus, UniProt P42227); assay: Electrophoretic Mobility Shift Assay (EMSA); settings: pH 7.8; 22 °C
Protocol: His10-Stat3 was expressed in Sf9 cells from a baculovirus encoding the recombinant protein. A nuclear extract of the Sf9 cells was incubated with 32P-labeled high affinity c-fos sis inducible element (hSIE) either alone or in the presence of inhibitor. After 20 min of incubation, samples were electrophoresed on polyacrylamide gels. The gels were dried, exposed to a phosphorimager screen and scanned. IC50 values were derived from plots of spot intensity versus phosphopeptide concentration. The affinity of peptides to the SH2 domain is measured by the intensity of the radioactivity of the Stat3-DNA complex band in the electrophoresis gel.

Chain of Signal transducer and activator of transcription 3 (P42227 whole entry, the tested form may be a part): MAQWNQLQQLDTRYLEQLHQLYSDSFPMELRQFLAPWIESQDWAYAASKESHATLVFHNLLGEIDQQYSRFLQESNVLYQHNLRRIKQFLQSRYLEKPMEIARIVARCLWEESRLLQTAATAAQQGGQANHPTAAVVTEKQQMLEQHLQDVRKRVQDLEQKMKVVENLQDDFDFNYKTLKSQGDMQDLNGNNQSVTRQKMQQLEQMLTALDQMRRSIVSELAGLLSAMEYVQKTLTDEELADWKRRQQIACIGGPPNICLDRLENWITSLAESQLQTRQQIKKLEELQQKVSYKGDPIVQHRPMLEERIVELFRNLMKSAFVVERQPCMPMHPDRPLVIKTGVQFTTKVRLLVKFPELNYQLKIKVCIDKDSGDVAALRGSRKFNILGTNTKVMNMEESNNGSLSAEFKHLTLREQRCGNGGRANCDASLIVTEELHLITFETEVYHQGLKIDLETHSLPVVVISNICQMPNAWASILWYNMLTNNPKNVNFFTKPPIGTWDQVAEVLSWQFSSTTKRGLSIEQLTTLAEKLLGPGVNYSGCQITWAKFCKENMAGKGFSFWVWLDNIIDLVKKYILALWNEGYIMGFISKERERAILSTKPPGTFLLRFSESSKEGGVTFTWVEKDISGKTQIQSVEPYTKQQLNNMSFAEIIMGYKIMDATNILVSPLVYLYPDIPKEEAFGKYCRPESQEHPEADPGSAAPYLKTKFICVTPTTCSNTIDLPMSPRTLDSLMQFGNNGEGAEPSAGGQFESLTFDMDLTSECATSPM

SMILES	IC50 [µM]
CC(=O)N[C@@H](Cc1ccc(OP(=O)(O)O)cc1)C(=O)N[C@@H](CC(C)C)C(=O)N1CCC[C@H]1C(=O)N[C@@H](C)C(=O)N[C@H](C(=O)N[C@H](C(N)=O)C(C)C)C(C)O (some centres undefined) [Y(p)LPATV] (Ac-[pY]LPA[Thr(3ξ)]V-NH2)	> 6
CCC(C)[C@H](NC(=O)[C@H](Cc1ccc(OP(=O)(O)O)cc1)NC(C)=O)C(=O)N[C@@H](CC(N)=O)C(=O)N[C@@H](CCC(N)=O)C(=O)N[C@@H](CO)C(=O)N[C@H](C(N)=O)C(C)C (some centres undefined) [Y(p)INQSV]	30
CC(=O)N[C@@H](Cc1ccc(OP(=O)(O)O)cc1)C(=O)N[C@@H](CC(C)C)C(=O)N[C@@H](C)C(=O)N[C@@H](CCC(N)=O)C(=O)N[C@H](C(=O)N[C@H](C(N)=O)C(C)C)C(C)O (stereo partly drawn) [4-[(2S)-2-{[(1S)-1-{[(1S)-1-{[(1S)-3-carbamoyl-1-{[(1S,2S)-1-{[(1S)-1-carbamoyl-2-methylpropyl]carbamoyl}-2-hydroxypropyl]carbamoyl}propyl]carbamoyl}ethyl]carbamoyl}-3-methylbutyl]carbamoyl}-2-acetamidoethyl]phenoxyphosphonic acid] (Ac-[pY]LAQ[Thr(3ξ)]V-NH2)	4
CC(=O)N[C@@H](Cc1ccc(OP(=O)(O)O)cc1)C(=O)N[C@@H](CC(C)C)C(=O)N1CCC[C@H]1C(=O)N[C@@H](CCC(N)=O)C(=O)N[C@H](C(=O)N[C@@H](C)C(N)=O)C(C)O (stereo partly drawn) [4-[(2S)-2-{[(2S)-1-[(2S)-2-{[(1S)-3-carbamoyl-1-{[(1S,2S)-1-{[(1S)-1-carbamoylethyl]carbamoyl}-2-hydroxypropyl]carbamoyl}propyl]carbamoyl}pyrrolidin-1-yl]-4-methyl-1-oxopentan-2-yl]carbamoyl}-2-acetamidoethyl]phenoxyphosphonic acid] (Ac-[pY]LPQ[Thr(3ξ)]A-NH2)	0.4
CC(=O)N[C@@H](Cc1ccc(OP(=O)(O)O)cc1)C(=O)N[C@@H](CC(C)C)C(=O)N1CCC[C@H]1C(=O)N[C@@H](CCC(N)=O)C(N)=O (Ac-[pY]LPQ-NH2)	1
CC(=O)N[C@@H](Cc1ccc(OP(=O)(O)O)cc1)C(=O)N[C@@H](CC(C)C)C(=O)N1CCC[C@H]1C(=O)N[C@@H](CCC(=O)O)C(=O)N[C@H](C(=O)N[C@H](C(N)=O)C(C)C)C(C)O (stereo partly drawn) [(4S)-4-{[(1S,2S)-1-{[(1S)-1-carbamoyl-2-methylpropyl]carbamoyl}-2-hydroxypropyl]carbamoyl}-4-{[(2S)-1-[(2S)-2-[(2S)-2-acetamido-3-[4-(phosphonooxy)phenyl]propanamido]-4-methylpentanoyl]pyrrolidin-2-yl]formamido}butanoic acid] (Ac-[pY]LPE[Thr(3ξ)]V-NH2)	> 6
CC(=O)N[C@@H](Cc1ccc(C(=O)O)cc1)C(=O)N[C@@H](CC(C)C)C(=O)N1CCC[C@H]1C(=O)N[C@@H](CCC(N)=O)C(=O)N[C@H](C(=O)N[C@H](C(N)=O)C(C)C)C(C)O (stereo partly drawn) [4-[(2S)-2-{[(2S)-1-[(2S)-2-{[(1S)-3-carbamoyl-1-{[(1S,2S)-1-{[(1S)-1-carbamoyl-2-methylpropyl]carbamoyl}-2-hydroxypropyl]carbamoyl}propyl]carbamoyl}pyrrolidin-1-yl]-4-methyl-1-oxopentan-2-yl]carbamoyl}-2-acetamidoethyl]benzoic acid] (Ac-[Phe(4-COOH)]LPQ[Thr(3ξ)]V-NH2)	> 6
CC(=O)N[C@@H](Cc1ccc(-c2nnn[nH]2)cc1)C(=O)N[C@@H](CC(C)C)C(=O)N1CCC[C@H]1C(=O)N[C@@H](CCC(N)=O)C(=O)N[C@H](C(=O)N[C@H](C(N)=O)C(C)C)C(C)O (stereo partly drawn) [(2S)-N-[(1S,2S)-1-{[(1S)-1-carbamoyl-2-methylpropyl]carbamoyl}-2-hydroxypropyl]-2-{[(2S)-1-[(2S)-2-[(2S)-2-acetamido-3-[4-(2H-1,2,3,4-tetrazol-5-yl)phenyl]propanamido]-4-methylpentanoyl]pyrrolidin-2-yl]formamido}pentanediamide] (Ac-[Phe(4-tetrazol-5-yl)]LPQ[Thr(3ξ)]V-NH2)	> 6
CC(=O)N[C@@H](Cc1ccc(OP(=O)(O)O)cc1)C(=O)N[C@@H](CC(C)C)C(=O)N1CCC[C@H]1C(=O)N[C@@H](CCC(N)=O)C(=O)N[C@H](C(=O)N[C@H](C(N)=O)C(C)C)C(C)O (stereo partly drawn) [4-[(2S)-2-{[(2S)-1-[(2S)-2-{[(1S)-3-carbamoyl-1-{[(1S,2S)-1-{[(1S)-1-carbamoyl-2-methylpropyl]carbamoyl}-2-hydroxypropyl]carbamoyl}propyl]carbamoyl}pyrrolidin-1-yl]-4-methyl-1-oxopentan-2-yl]carbamoyl}-2-acetamidoethyl]phenoxyphosphonic acid]	0.15
CC(=O)N[C@@H](Cc1ccc(OP(=O)(O)O)cc1)C(=O)N[C@@H](CC(C)C)C(=O)N[C@@H](CCCN=C(N)N)C(=O)N[C@@H](CS)C(=O)N[C@@H](CC(=O)O)C(=O)N[C@@H](CO)C(N)=O [(3S)-3-[(2R)-2-[(2S)-5-carbamimidamido-2-[(2S)-2-[(2S)-2-acetamido-3-[4-(phosphonooxy)phenyl]propanamido]-4-methylpentanamido]pentanamido]-3-sulfanylpropanamido]-3-{[(1S)-1-carbamoyl-2-hydroxyethyl]carbamoyl}propanoic acid] (Ac-[pY]LRCDS-NH2)	80
CC(=O)N[C@@H](Cc1ccc(OP(=O)(O)O)cc1)C(=O)N[C@@H](CO)C(=O)N[C@H](C(=O)N[C@H](C(=O)N[C@H](C(=O)N[C@@H](Cc1cnc[nH]1)C(N)=O)C(C)C)C(C)C)C(C)O (some centres undefined) [Y(p)STVVH] (Ac-[pY]S[Thr(3ξ)]VVH-NH2)	> 150
CC(=O)N[C@@H](Cc1ccc(OP(=O)(O)O)cc1)C(=O)N[C@@H](CC(C)C)C(=O)N1CCC[C@H]1C(=O)N[C@@H](CCC(N)=O)C(=O)N[C@H](C(N)=O)C(C)O (stereo partly drawn) [4-[(2S)-2-{[(2S)-1-[(2S)-2-{[(1S)-3-carbamoyl-1-{[(1S,2S)-1-carbamoyl-2-hydroxypropyl]carbamoyl}propyl]carbamoyl}pyrrolidin-1-yl]-4-methyl-1-oxopentan-2-yl]carbamoyl}-2-acetamidoethyl]phenoxyphosphonic acid] (Ac-[pY]LPQ[Thr(3ξ)]-NH2)	0.6
CC(=O)N[C@@H](Cc1ccc(OP(=O)(O)O)cc1)C(=O)N[C@@H](CC(C)C)C(=O)N1CCC[C@H]1C(N)=O [Y(p)LP] (Ac-[pY]-Leu-Pro-NH2)	> 6
CC(=O)N[C@@H](Cc1ccc(OP(=O)(O)O)cc1)C(=O)N[C@@H](CO)C(=O)N[C@@H](CC(=O)O)C(=O)NCC(=O)N[C@@H](CC(N)=O)C(=O)N[C@@H](Cc1ccccc1)C(N)=O [Y(p)SDGNF] (Ac-[pY]SDGNF-NH2)	> 150
CC(=O)N[C@@H](Cc1ccc(OP(=O)(O)O)cc1)C(=O)N[C@@H](CCC(N)=O)C(=O)N[C@@H](CCCCN)C(=O)N[C@@H](CCC(N)=O)C(=O)N[C@H](C(=O)N[C@@H](CCCN=C(N)N)C(N)=O)C(C)O (some centres undefined) [Y(p)QKQTR] (Ac-[pY]QKQ[Thr(3ξ)]R-NH2)	8
CC(=O)N[C@@H](Cc1ccc(OP(=O)(O)O)cc1)C(=O)N[C@@H](C)C(=O)N1CCC[C@H]1C(=O)N[C@@H](CCC(N)=O)C(=O)N[C@H](C(=O)N[C@H](C(N)=O)C(C)C)C(C)O (some centres undefined) [Y(p)APQTV] (Ac-[pY]APQ[Thr(3ξ)]V-NH2)	1.6
CC(=O)N[C@@H](Cc1ccc(OP(=O)(O)O)cc1)C(=O)N[C@@H](CC(C)C)C(=O)N1CCC[C@H]1C(=O)N[C@@H](CC(N)=O)C(=O)N[C@H](C(=O)N[C@H](C(N)=O)C(C)C)C(C)O (stereo partly drawn) [4-[(2S)-2-{[(2S)-1-[(2S)-2-{[(1S)-2-carbamoyl-1-{[(1S,2S)-1-{[(1S)-1-carbamoyl-2-methylpropyl]carbamoyl}-2-hydroxypropyl]carbamoyl}ethyl]carbamoyl}pyrrolidin-1-yl]-4-methyl-1-oxopentan-2-yl]carbamoyl}-2-acetamidoethyl]phenoxyphosphonic acid] (Ac-[pY]LPN[Thr(3ξ)]V-NH2)	2
CC(=O)N[C@@H](Cc1ccc(CP(=O)(O)O)cc1)C(=O)N[C@@H](CC(C)C)C(=O)N1CCC[C@H]1C(=O)N[C@@H](CCC(N)=O)C(=O)N[C@H](C(=O)N[C@H](C(N)=O)C(C)C)C(C)O (stereo partly drawn) [({4-[(2S)-2-{[(2S)-1-[(2S)-2-{[(1S)-3-carbamoyl-1-{[(1S,2S)-1-{[(1S)-1-carbamoyl-2-methylpropyl]carbamoyl}-2-hydroxypropyl]carbamoyl}propyl]carbamoyl}pyrrolidin-1-yl]-4-methyl-1-oxopentan-2-yl]carbamoyl}-2-acetamidoethyl]phenyl}methyl)phosphonic acid]	8
CC(=O)N[C@@H](Cc1ccc(OP(=O)(O)O)cc1)C(=O)N[C@@H](CC(C)C)C(=O)N[C@@H](CCCCN)C(=O)N[C@H](C(=O)N[C@@H](CCCCN)C(=O)N[C@@H](Cc1ccccc1)C(N)=O)C(C)O (stereo partly drawn) [4-[(2S)-2-{[(1S)-1-{[(1S)-5-amino-1-{[(1S,2R)-1-{[(1S)-5-amino-1-{[(1S)-1-carbamoyl-2-phenylethyl]carbamoyl}pentyl]carbamoyl}-2-hydroxypropyl]carbamoyl}pentyl]carbamoyl}-3-methylbutyl]carbamoyl}-2-acetamidoethyl]phenoxyphosphonic acid] (Ac-[pY]LK[Thr(3ξ)]KF-NH2)	20
